Assay results taken from patent US20210363152A1, “AMINOAZINE AMIDES” (Hoffmann-La Roche Inc., priority 2018, published 2021).

Target: T1, Autotaxin enzyme (ATX) (Homo sapiens, UniProt Q13822)
T1 construct: purchased Echelon Biosciences, Inc. E-4000
Experiment: In vitro ATX assay (enzymatic ATX inhibition, LPC 14:0 substrate, choline oxidase/HRP absorbance readout)
Format: biochemical
Conditions: 0.3 mM LPC 14:0, 37° C., 4 hours, absorbance 555 nm
Procedure: • Assay buffer: 100 mM Tris-HCl, pH 9.0, 500 mM NaCl, 5 mM MgCl2, 30 μM CoCl2, 0.05% Triton X-100 • Assay buffer II: 4.5 mM 4-AAP, 2.7 mM TOOS, 21.2 U/mL HRP, 3 U/mL CO, In 50 mM Tris-HCl pH 8.0, 4.5 mM MgCl2
A compound preparation plate (Nunc 249944) was prepared by adding 30 mM stock solution (in DMSO) of test compound and performing a serial full-log dilution down to 30 nM. Two μL/well were transferred from the first compound prep plate to a compound dilution plate (Corning, 3641) and 198 μL assay buffer I was added for a […].
A 10 ng/mL solution of ATX was prepared by diluting in assay buffer I, and 80 μL/well were added to the assay plate (Corning, 3641); negative control wells contained 80 μL/well assay buffer I only (no ATX). Ten μL/well from the compound dilution plate (containing serially diluted test compound or DMSO) were added to the assay plate, which was then incubated at 37° C. for 15 minutes. A solution of LPC 14:0 was prepared in assay buffer I at 3 mM and 10 μl/well were added to the assay plate, for a final concentration of 0.3 mM LPC, and returned to 37° C. incubator for 4 hours. After 4 hour incubation, 100 μL/well of assay buffer II was added to all wells of the assay plate. The plate was incubated at RT for 15 minutes, prior to reading on FlexStation in absorbance mode, 555 nm. Results in the enzymatic ATX inhibition assay are provided for compounds of formula (I). An IC50 value of “A” is less than 100 nM, “B” is equal to or greater than 100 nM but less than 1 μM, “C” is equal to or greater than 1 μM.

| Structure (SMILES) | IC50 [nM] |
| --- | --- |
| O=C(c1cnc(NCc2cc(OC(F)(F)F)cc(C3CC3)c2)nc1)N1CCC12CCCOC2 (single isomer, unassigned) [Example 122, (2-((3-Cyclopropyl-5-(trifluoromethoxy)benzyl)amino)-pyrimidin-5-yl)(6-oxa-1-azaspiro[3.5]nonan-1-yl)methanone] | < 100 |
| O=C(c1cnc(NC2Cc3ccc(Cl)cc3C2)nc1)N1CCC12CCOCC2 (stereo not drawn) [Example 47] | < 100 |
| COc1cc(CNc2ncc(C(=O)N3CCC3C)cn2)cc(OC)c1 (stereo not drawn) [Example 11] | ≥ 1000 |
| CCCc1cc(CNc2ncc(C(=O)N3CCC34COC4)cn2)cc(OC(C)C)c1 [Example 39] | < 100 |
| O=C(c1cnc(NCc2cc(OC(F)(F)F)cc(C3CCC3)c2)nc1)N1CCC12COC2 [Example 23] | < 100 |
| COC[C@@H]1CCCN1C(=O)c1cnc(NCc2cc(OC(F)(F)F)cc(C3CC3)c2)nc1 [Example 94, (S)-(2-((3-cyclopropyl-5-(trifluoromethoxy)benzyl)ami-no)pyrimidin-5-yl)(2-(methoxymethyl)pyrrolidin-1-yl)methanone] | 100 to 1000 |
| O=C(c1cnc(NCc2cc(OC(F)(F)F)cc(C3CC3)c2)nc1)N1CCc2ccncc21 [Example 98, (2-((3-cyclopropyl-5-(trifluoromethoxy)benzyl)ami-no)pyrimidin-5-yl)(2,3-dihydro-1H-pyrrolo[2,3-c]pyridin-1-yl)methanone] | < 100 |
| CC1(O)CC2(CCN2C(=O)c2cnc(N[C@@H]3Cc4ccc(Cl)cc4C3)nc2)C1 (stereo partly drawn) [Example 134, (R)-(2-((5-Chloro-2,3-dihydro-1H-inden-2-yl)amino)pyrimidin-5-yl)(6-hydroxy-6-methyl-1-azaspiro[3.3]heptan-1-yl)methanone] | < 100 |
| COC1CN(C(=O)c2cnc(NCc3cc(OC(F)(F)F)cc(C4CC4)c3)nc2)C1 [Example 109, (2-((3-cyclopropyl-5-(trifluoromethoxy)benzyl)ami-no)pyrimidin-5-yl)(3-methoxyazetidin-1-yl)-methanone] | < 100 |
| O=C(c1cnc(NCc2cc(OC(F)(F)F)cc(C3CC3)c2)nc1)N1CCC12CCOCC2 [Example 101, (2-((3-cyclopropyl-5-(trifluoromethoxy)benzyl)ami-no)pyrimidin-5-yl)(7-oxa-1-azaspiro[3.5]nonan-1-yl)methanone] | < 100 |
| O=C(c1cnc(NCc2cc(OC(F)(F)F)cc(N3CCC3)c2)nc1)N1CCC12COC2 [Example 158, (2-((3-(Azetidin-1-yl)-5-(trifluoromethoxy)benzyl)amino)pyrimidin-5-yl)(6-oxa-1-azaspiro[3.3]heptan-1-yl)methanone] | < 100 |
| CC1CC(C)N1C(=O)c1cnc(NCc2cc(OC(F)(F)F)cc(C3CC3)c2)nc1 (single isomer, unassigned) [Example 120, (2-((3-Cyclopropyl-5-(trifluoromethoxy)-benzyl)amino)pyrimidin-5-yl)(2,4-dimethylazetidin-1-yl)methanone] | < 100 |
| O=C(c1cnc(NC2Cc3ccc(Cl)cc3C2)nc1)N1CCC1 (stereo not drawn) [Example 56] | < 100 |
| CC(C)Oc1ccc2c(c1)CC(Nc1ncc(C(=O)N3CCC34COC4)cn1)C2 (stereo not drawn) [Example 161, (2-((5-Isopropoxy-2,3-dihydro-1H-inden-2-yl)amino)pyrimidin-5-yl)(6-oxa-1-azaspiro[3.3]heptan-1-yl)methanone] | 100 to 1000 |
| O=C(c1cnc(NCc2cc(OC(F)(F)F)cc(C3CC3)c2)nc1)N1CCC1C(F)F (stereo not drawn) [Example 113, (2-((3-cyclopropyl-5-(trifluoromethoxy)benzyl)ami-no)pyrimidin-5-yl)(2-(difluoromethyl)azetidin-1-yl)methanone] | < 100 |
| O=C(c1cnc(NCc2cccc(Cl)c2Cl)nc1)N1CCC12COC2 [Example 55] | 100 to 1000 |

The remaining lines, values ahead:

| IC50 [nM] | Structure (SMILES) |
| --- | --- |
| < 100 | CS(=O)(=O)CCN1CC2(CCN2C(=O)c2cnc(NCc3cc(OC(F)(F)F)cc(C4CC4)c3)nc2)C1 [Example 150, (2-((3-Cyclopropyl-5-(trifluoromethoxy)benzyl)amino)pyrimidine-5-yl) (6-(2-(methylsulfonyl)ethyl)-1,6-diazaspiro[3.3]heptan-1-yl)methanone] |
| < 100 | O=C(c1cnc(NC2Cc3ccc(Cl)cc3C2)nc1)N1CCC12CS(=O)(=O)C2 (stereo not drawn) [Example 49] |
| < 100 | O=C(c1cnc(NCc2cc(C3CC3)cc(C(F)(F)F)c2)nc1)N1CCC12COC2 [Example 36] |
| < 100 | CC1(C)CCN1C(=O)c1cnc(NC2Cc3ccc(Cl)cc3C2)nc1 (stereo not drawn) [Example 41] |
| < 100 | CS(=O)(=O)N1CC2(CCN2C(=O)c2cnc(NC3Cc4ccc(Cl)cc4C3)nc2)C1 (stereo not drawn) [Example 152, (2-((5-Chloro-2,3-dihydro-1H-inden-2-yl)amino)pyrimidin-5-yl)(6-(methylsulfonyl)-1,6-diazaspiro[3.3]heptan-1-yl)methanone] |
| < 100 | CC(C)(O)[C@H]1CCN1C(=O)c1cnc(N[C@@H]2Cc3ccc(Cl)cc3C2)nc1 [Example 136, (2-(((R)-5-Chloro-2,3-dihydro-1H-inden-2-yl)amino)pyrimidin-5-yl) ((R)-2-(2-hydroxypropan-2-yl)azetidin-1-yl)methanone] |
| < 100 | CC(C)Oc1cc(CNc2ncc(C(=O)N3CCC3C(C)(C)O)cn2)cc(OC(C)C)c1 (stereo not drawn) [Example 58] |
| < 100 | O=C(c1cnc(N[C@@H]2Cc3ccc(Cl)cc3C2)nc1)N1CCC12CCOC2 (stereo partly drawn) [Example 132, (2-(((R)-5-Chloro-2,3-dihydro-1H-inden-2-yl)amino)pyrimidin-5-yl)(6-oxa-1-azaspiro[3.4]octan-1-yl)methanone] |
| 100 to 1000 | COc1cc(CNc2ncc(C(=O)N3CCC34COC4)cn2)cc(OC(F)(F)F)c1 [Example 30] |
| < 100 | CC(C)Oc1cc(CNc2ncc(C(=O)N3CCC34COC4)cn2)cc(OC(F)(F)F)c1 [Example 28] |
| 100 to 1000 | O=C(c1cnc(NCc2cc(Cl)cc(Cl)c2)nc1)N1CCC12COC2 [Example 50] |
| ≥ 1000 | O=C(c1ccc(NCc2cccc(OC(F)(F)F)c2)nc1)N1CCC12COC2 [Example 73, 6-Oxa-1-azaspiro[3.3]heptan-1-yl(6-((3-(trifluoromethoxy)benzyl)amino)pyridin-3-yl)methanone] |
| < 100 | CC(C)(O)C1CCN1C(=O)c1cnc(N[C@@H]2Cc3ccc(Cl)cc3C2)nc1 (stereo partly drawn) [Example 131, (2-(((R)-5-Chloro-2,3-dihydro-1H-inden-2-yl)amino)pyrimidin-5-yl)(2-(2-hydroxypropan-2-yl)azetidin-1-yl)methanone] |
| 100 to 1000 | CCc1ccc2c(c1)CC(Nc1ncc(C(=O)N3CCC34COC4)cn1)C2 (stereo not drawn) [Example 126, (2-((5-Ethyl-2,3-dihydro-1H-inden-2-yl)amino)pyrimidin-5-yl) (6-oxa-1-azaspiro[3.3]heptan-1-yl)methanone] |
| < 100 | CC(C)(O)C1CCN1C(=O)c1cnc(NCc2cc(OC(F)(F)F)cc(N3CCC3)c2)nc1 (stereo not drawn) [Example 68] |
| < 100 | CCOc1cc(CNc2ncc(C(=O)N3CCC34COC4)cn2)cc(OC(F)(F)F)c1 [Example 31] |
| < 100 | CN1CCCC2(CCN2C(=O)c2cnc(NCc3cc(OC(F)(F)F)cc(C4CC4)c3)nc2)C1 (stereo not drawn) [Example 156, (2-((3-Cyclopropyl-5-(trifluoromethoxy)benzyl)amino)pyrimidin-5-yl)(6-methyl-1,6-diazaspiro[3.5]nonan-1-yl)methanone] |
